Laboratory results as given in patent US7739055B2, “Methods and systems for generating and evaluating peptides” (priority 2005, dated 2010).
≈ marks a conversion by molar mass, not a printed value. Where two headings read alike, the source gives them in different places. Where a SMILES comes first, the peptide text is derived from it.

How the values were obtained:
[1] = system: B. cereus
[2] = system: Escherichia coli
[3] = first concentration that prohibits growth by OD at 24 hours, Table 1

Row | Compound | MIC B. cereus [1] | MIC E. coli [2, 3] | MIC B. cereus [1, 3] | MIC E. coli ([2]; 24 h) [µg/mL] | MIC B. cereus ([1]; 24 h) [µg/mL]
1 | CC[C@H](C)[C@H](NC(=O)[C@@H](NC(=O)[C@H](CCCCN)NC(=O)[C@H](C)NC(=O)[C@H](CC(C)C)NC(=O)[C@H](CCCCN)NC(=O)[C@H](CCCCN)NC(=O)CN)[C@@H](C)O)C(=O)N[C@@H](C)C(=O)N[C@@H](CCCCN)C(=O)N[C@@H](CCC(=O)O)C(=O)N[C@H](C(=O)N[C@@H](C)C(=O)N[C@@H](CCCCN)C(=O)N[C@@H](CCC(N)=O)C(=O)NCC(=O)N[C@@H](C)C(=O)N[C@@H](CCCCN)C(=O)N[C@@H](Cc1ccccc1)C(=O)N[C@@H](C)C(=O)O)C(C)C [Peptide 77] (H-GKKLAKTIAKEVAKQGAKFA-OH) | + (key: +: MIC greater than 256 ug/mL; ++: MIC greater than 128 ug/mL, not sufficiently soluble to test as 256 ug/mL) | 64 µg/mL (≈ 30.7 µM) |  |  | 
2 | CC[C@H](C)[C@H](NC(=O)[C@@H](NC(=O)[C@H](CS)NC(=O)[C@H](Cc1ccc(O)cc1)NC(=O)[C@@H](NC(=O)[C@H](CO)NC(=O)[C@@H]1CCCN1C(=O)[C@@H](NC(=O)[C@@H](NC(=O)[C@H](CCCCN)NC(=O)[C@H](CO)NC(=O)[C@H](C)NC(=O)[C@H](CC(C)C)NC(=O)[C@H](CCCCN)NC(=O)[C@H](Cc1ccccc1)NC(=O)[C@@H](NC(=O)[C@@H](N)C(C)C)C(C)C)C(C)C)C(C)C)C(C)C)[C@@H](C)O)C(=O)N[C@H](C(=O)N[C@@H](CCCCN)C(=O)N[C@@H](CCCCN)C(=O)O)[C@@H](C)O [Peptide 88] (H-VVFKLASKVVPSVYCTITKK-OH; N-terminus and C-terminus assumed) |  |  | + (MIC greater than 256 ug/mL) | 256 (≈ 116 µM) | 
3 | CC[C@H](C)[C@H](NC(=O)[C@H](CC(C)C)NC(=O)CNC(=O)[C@@H](NC(=O)[C@@H](NC(=O)[C@H](C)NC(=O)[C@@H]1CCCN1C(=O)[C@@H](NC(=O)[C@@H](NC(=O)[C@H](CCCCN)NC(=O)[C@H](CO)NC(=O)[C@H](C)NC(=O)[C@H](CC(C)C)NC(=O)[C@H](CO)NC(=O)[C@H](Cc1ccccc1)NC(=O)[C@H](CC(C)C)NC(=O)[C@H](C)NC(=O)CN)C(C)C)C(C)C)C(C)C)[C@@H](C)CC)C(=O)N[C@@H](CCCCN)C(=O)N[C@@H](CCCCN)C(=O)O [Peptide 96] (H-GALFSLASKVVPAVIGLIKK-OH; N-terminus and C-terminus assumed) |  | + (MIC greater than 256 ug/mL) |  |  | 256 (≈ 127 µM)
4 | CC[C@H](C)[C@H](NC(=O)[C@H](CCSC)NC(=O)[C@H](C)NC(=O)[C@@H]1CCCN1C(=O)[C@@H](NC(=O)[C@@H](NC(=O)[C@H](CCCCN)NC(=O)[C@@H](NC(=O)[C@H](CC(C)C)NC(=O)CNC(=O)CNC(=O)[C@H](CC(C)C)NC(=O)[C@@H](N)Cc1ccccc1)[C@@H](C)CC)[C@@H](C)CC)C(C)C)C(=O)N[C@@H](CS)C(=O)N[C@@H](C)C(=O)N[C@H](C(=O)N[C@H](C(=O)N[C@@H](CCCCN)C(=O)N[C@@H](CCCCN)C(=O)N[C@@H](CS)C(=O)O)[C@@H](C)O)C(C)C [Ranalexin] (H-FLGGLIKIVPAMICAVTKKC-OH; N-terminus and C-terminus assumed) |  |  |  | 64 (≈ 30.4 µM) | 32 (≈ 15.2 µM)
5 | AATGTGKTAAFALPVLERLI [Peptide 38] |  | + (MIC greater than 256 ug/mL) | + (MIC greater than 256 ug/mL) |  | 
6 | AKKAQKSGAQTIVKIFAKGM [Shuffled 39] |  | + (MIC greater than 256 ug/mL) | + (MIC greater than 256 ug/mL) |  | 
7 | ALFSLASKVVPSVFSMVTKK [Peptide 1] |  | + (MIC greater than 256 ug/mL) | + (MIC greater than 256 ug/mL) |  | 
8 | ALVYAGIKKTAFLKVQKCDG [Shuffled 33] |  | + (MIC greater than 256 ug/mL) | + (MIC greater than 256 ug/mL) |  | 
9 | FKVVISKPGLSVRVGTALVT [Shuffled 65] |  | ++ (MIC greater than 128 ug/mL, not sufficiently soluble to test as 256 ug/mL) | ++ (MIC greater than 128 ug/mL, not sufficiently soluble to test as 256 ug/mL) |  | 
10 | FLPFVGRIASKVVPSVIGKV [Peptide 75] |  | + (MIC greater than 256 ug/mL) | + (MIC greater than 256 ug/mL) |  | 
11 | FMKVLAVFGSVVTSAPKASK [Shuffled 31] |  | + (MIC greater than 256 ug/mL) | + (MIC greater than 256 ug/mL) |  | 
12 | FVGGVASKVVPSVYCKVSKK [Peptide 85] |  | + (MIC greater than 256 ug/mL) | + (MIC greater than 256 ug/mL) |  | 
13 | FVGSLASKVVPSVFGAIKTK [Peptide 82] |  | + (MIC greater than 256 ug/mL) | + (MIC greater than 256 ug/mL) |  | 
14 | GAVFGVASKVVPSVFSAIKK [Peptide 84] |  | + (MIC greater than 256 ug/mL) | + (MIC greater than 256 ug/mL) |  | 
15 | GLKKDALQSIVKKAQLAAMG [Shuffled 9] |  | + (MIC greater than 256 ug/mL) | + (MIC greater than 256 ug/mL) |  | 
16 | GVSSPIVAVKFKGAVASLIK [Shuffled 6] |  | + (MIC greater than 256 ug/mL) | + (MIC greater than 256 ug/mL) |  | 
17 | GVVGKLASKVVPSVFGSFTK [Peptide 34] |  | + (MIC greater than 256 ug/mL) | + (MIC greater than 256 ug/mL) |  | 
18 | HTGRSGPATGHSGHSSTHGS [Peptide 86] |  | + (MIC greater than 256 ug/mL) | + (MIC greater than 256 ug/mL) |  | 
19 | IASAVPVCVKGKISKSYISV [Shuffled 44] |  | + (MIC greater than 256 ug/mL) | + (MIC greater than 256 ug/mL) |  | 
20 | KFDPLEGAPMARGIVLEKVG [Peptide 74] |  | + (MIC greater than 256 ug/mL) | + (MIC greater than 256 ug/mL) |  | 
21 | KGRGKQGGKVRAKAKTRSS [Parasin] |  | + (MIC greater than 256 ug/mL) | + (MIC greater than 256 ug/mL) |  | 
22 | KIVKVITVKSISPASLVPVF [Shuffled 83] |  | ++ (MIC greater than 128 ug/mL, not sufficiently soluble to test as 256 ug/mL) | ++ (MIC greater than 128 ug/mL, not sufficiently soluble to test as 256 ug/mL) |  | 
23 | KSPFVLVVSSRVAAVIKSLP [Shuffled 25] |  | + (MIC greater than 256 ug/mL) | + (MIC greater than 256 ug/mL) |  | 
24 | KTVPVVLKASIKVSSAGFGF [Shuffled 82] |  | + (MIC greater than 256 ug/mL) | + (MIC greater than 256 ug/mL) |  | 

Row | Compound | MIC B. cereus [1] | MIC E. coli [2, 3] | MIC B. cereus [1, 3] | MIC E. coli ([2]; 24 h) [µg/mL] | MIC B. cereus ([1]; 24 h) [µg/mL]
25 | KVGKGSYPCSFVKVVAKVSV [Shuffled 85] |  | + (MIC greater than 256 ug/mL) | + (MIC greater than 256 ug/mL) |  | 
26 | KVYVVKIAVPCFPKSARSVS [Shuffled 29] |  | + (MIC greater than 256 ug/mL) | + (MIC greater than 256 ug/mL) |  | 
27 | KYGPALVIAVKKSCSLTFRA [Shuffled 23] |  | + (MIC greater than 256 ug/mL) | + (MIC greater than 256 ug/mL) |  | 
28 | LGVVGSLASKVVPAVISKVK [Peptide 57] |  | + (MIC greater than 256 ug/mL) | + (MIC greater than 256 ug/mL) |  | 
29 | LPAVFKLASKVVPSVFGLVK [Peptide 42] |  | + (MIC greater than 256 ug/mL) | + (MIC greater than 256 ug/mL) |  | 
30 | LPVLFSSAIAKVGIKLGAKV [Shuffled 96] |  | + (MIC greater than 256 ug/mL) | + (MIC greater than 256 ug/mL) |  | 
31 | LPVVFKIASKVVPSVISKIT [Peptide 83] |  | + (MIC greater than 256 ug/mL) | + (MIC greater than 256 ug/mL) |  | 
32 | LSAVGKIASKVVPSVIGAFK [Peptide 6] |  | + (MIC greater than 256 ug/mL) | + (MIC greater than 256 ug/mL) |  | 
33 | LYSPTCVKAAVSRFIGKVSA [Shuffled 15] |  | + (MIC greater than 256 ug/mL) | + (MIC greater than 256 ug/mL) |  | 
34 | MKSIAKFIAKTVAKQGAKQG [Peptide 39] | + (key: +: MIC greater than 256 ug/mL; ++: MIC greater than 128 ug/mL, not sufficiently soluble to test as 256 ug/mL) | + (MIC greater than 256 ug/mL) |  |  | 
35 | MVVFSVPKFKSTVAKLLSSA [Shuffled 1] |  | + (MIC greater than 256 ug/mL) | + (MIC greater than 256 ug/mL) |  | 
36 | PKVVGLSIVVVKAKVSSALG [Shuffled 57] |  | + (MIC greater than 256 ug/mL) | + (MIC greater than 256 ug/mL) |  | 
37 | PSLLYKAKAVFCKPSAVAVF [Shuffled 62] |  | ++ (MIC greater than 128 ug/mL, not sufficiently soluble to test as 256 ug/mL) | ++ (MIC greater than 128 ug/mL, not sufficiently soluble to test as 256 ug/mL) |  | 
38 | PVIGKLASKVVPSVFSMIKR [Peptide 7] |  | + (MIC greater than 256 ug/mL) | + (MIC greater than 256 ug/mL) |  | 
39 | PVVFSVASKVVPSLISALKR [Peptide 25] | + (key: +: MIC greater than 256 ug/mL; ++: MIC greater than 128 ug/mL, not sufficiently soluble to test as 256 ug/mL) | + (MIC greater than 256 ug/mL) |  |  | 
40 | PVVGRVASKVFPAVIGLVKK [Peptide 45] |  | + (MIC greater than 256 ug/mL) | + (MIC greater than 256 ug/mL) |  | 
41 | PYSLKNGENWLLSEEIIRYP [Peptide 50] |  | + (MIC greater than 256 ug/mL) | + (MIC greater than 256 ug/mL) |  | 
42 | RKRKSDVDFEAEFELFEDDD [Peptide 19] |  | + (MIC greater than 256 ug/mL) | + (MIC greater than 256 ug/mL) |  | 
43 | SALGRLASKVVPAVIGKVTT [Peptide 56] |  | + (MIC greater than 256 ug/mL) | + (MIC greater than 256 ug/mL) |  | 
44 | SALGRVASKVFPAVYCSITK [Peptide 15] |  | + (MIC greater than 256 ug/mL) | + (MIC greater than 256 ug/mL) |  | 
45 | SAVGKLASKVFPAVFSMVTK [Peptide 31] |  | + (MIC greater than 256 ug/mL) | + (MIC greater than 256 ug/mL) |  | 
46 | SAVGSVASKVVPSLISKVTK [Peptide 36] |  | + (MIC greater than 256 ug/mL) | + (MIC greater than 256 ug/mL) |  | 
47 | SKFPLAGIFSVPGVKRVVVI [Shuffled 75] |  | + (MIC greater than 256 ug/mL) | + (MIC greater than 256 ug/mL) |  | 
48 | SRVPLKSPVKIVGSKVMIFA [Shuffled 7] |  | + (MIC greater than 256 ug/mL) | + (MIC greater than 256 ug/mL) |  | 
